Data on 20 compounds can be found in PubChem BioAssay AID200 (DTP/NCI, 2004).

Values joined by “and” are separate entries in the source; they are usually repeats but may differ in a detail not shown here. Equal entries are not always repeated. Inconclusive results and toxic doses are left out. Where a SMILES comes first, the peptide text is derived from it.

The subject of this assay is B6C3F1 mice, B16 melanoma ip, median survival T/C. In words: NCI In Vivo Anticancer Drug Screen. Data for tumor model B16 Melanoma (intraperitoneal) in B6C3F1 mice. The conditions noted are these: endpoint: median survival time, higher = longer survival. In a few lines: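 Values are T/C ratios: the measurement in treated animals divided by that in vehicle-treated controls, using survival or tumor size in mice carrying transplantable tumors.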

Setting [1] is: dose: 3.12 mg/kg/injection, schedule: Q01DX009 (ip), vehicle: saline with Tween-80.
The mark [2] stands for this setting: dose: 6.25 mg/kg/injection, schedule: Q01DX009 (ip), vehicle: saline with Tween-80.
[3] abbreviates: dose: 12.5 mg/kg/injection, schedule: Q01DX009 (ip), vehicle: saline with Tween-80.
Where [4] appears, read: dose: 25.0 mg/kg/injection, schedule: Q01DX009 (ip), vehicle: saline with Tween-80.
Where [5] appears, read: dose: 12.5 mg/kg/injection, schedule: Q01DX009 (ip), vehicle: Klucel (hydroxypropylcellulose) (HPC).
The mark [6] stands for this setting: dose: 25.0 mg/kg/injection, schedule: Q01DX009 (ip), vehicle: Klucel (hydroxypropylcellulose) (HPC).
Where [7] appears, read: dose: 50.0 mg/kg/injection, schedule: Q01DX009 (ip), vehicle: Klucel (hydroxypropylcellulose) (HPC).
Where [8] appears, read: dose: 100.0 mg/kg/injection, schedule: Q01DX009 (ip), vehicle: Klucel (hydroxypropylcellulose) (HPC).
Where [9] appears, read: dose: 200.0 mg/kg/injection, schedule: Q01DX009 (ip), vehicle: Klucel (hydroxypropylcellulose) (HPC).
The mark [10] stands for this setting: dose: 400.0 mg/kg/injection, schedule: Q01DX009 (ip), vehicle: Klucel (hydroxypropylcellulose) (HPC).
Setting [11] is: dose: 12.5 mg/kg/injection, schedule: Q01DX009 (ip), vehicle: suspension in saline.
Setting [12] is: dose: 25.0 mg/kg/injection, schedule: Q01DX009 (ip), vehicle: suspension in saline.
Where [13] appears, read: dose: 50.0 mg/kg/injection, schedule: Q01DX009 (ip), vehicle: suspension in saline.
Setting [14] is: dose: 3.12 mg/kg/injection, schedule: Q01DX009 (ip), vehicle: suspension in saline.
The mark [15] stands for this setting: dose: 6.25 mg/kg/injection, schedule: Q01DX009 (ip), vehicle: saline.
Where [16] appears, read: dose: 6.25 mg/kg/injection, schedule: Q01DX009 (ip), vehicle: suspension in saline.
Where [17] appears, read: dose: 12.5 mg/kg/injection, schedule: Q01DX009 (ip), vehicle: saline.
The mark [18] stands for this setting: dose: 25.0 mg/kg/injection, schedule: Q01DX009 (ip), vehicle: saline.
Setting [19] is: dose: 50.0 mg/kg/injection, schedule: Q01DX009 (ip), vehicle: saline.

As to `ClC1=C(Cl)C(Cl)=C(Cl)C1=Cc1ccccc1`, the T/C under setting [1] is 112 % of control, the T/C under setting [2] was 98 % of control, the T/C under setting [3] is 106 % of control and the T/C under setting [4] was 101 % of control.
As to `[Cl][Pt+2][Cl].[NH-]c1cc(Cl)c(Cl)cc1[NH-]`, the T/C is, setting by setting: (dose: 20.0 mg/kg/injection, schedule: Q01DX009 (ip), vehicle: saline with Tween-80) 97 % of control and 107 % of control; (dose: 40.0 mg/kg/injection, schedule: Q01DX009 (ip), vehicle: saline with Tween-80) 110 % of control and 101 % of control; (dose: 80.0 mg/kg/injection, schedule: Q01DX009 (ip), vehicle: saline with Tween-80) 110 % of control and 122 % of control; (dose: 160.0 mg/kg/injection, schedule: Q01DX009 (ip), vehicle: saline with Tween-80) 111 % of control and 105 % of control; (dose: 320.0 mg/kg/injection, schedule: Q01DX009 (ip), vehicle: saline with Tween-80) 110 % of control and 106 % of control.
In the case of `C/C=C1\C(=O)O[C@@]23C=C[C@H]4C(C(=O)OC)=CO[C@@H](O[C@H]12)[C@H]43`, the T/C was 101 % of control (dose: 3.75 mg/kg/injection, schedule: Q01DX009 (ip), vehicle: Klucel (hydroxypropylcellulose) (HPC)); 95 % of control (dose: 7.5 mg/kg/injection, schedule: Q01DX009 (ip), vehicle: Klucel (hydroxypropylcellulose) (HPC)); 95 % of control (dose: 15.0 mg/kg/injection, schedule: Q01DX009 (ip), vehicle: Klucel (hydroxypropylcellulose) (HPC)).
For `OCC1OC(n2cnc3c(NO)ncnc32)C(O)C1O` (centres undefined), the T/C under setting [5] is 101 % of control and 105 % of control; the T/C under setting [6] was 93 % of control and 100 % of control; the T/C under setting [7] was 96 % of control and 98 % of control; the T/C under setting [8] was 97 % of control and 101 % of control; the T/C under setting [9] is 91 % of control and 95 % of control; the T/C under setting [10] was 86 % of control and 87 % of control.
Regarding `O=c1c(O)c(-c2ccc(O)c(O)c2)oc2cc(O)cc(O)c12`, the T/C is, setting by setting: under setting [11], 103 % of control; under setting [12], 107 % of control; under setting [13], 102 % of control; (dose: 100.0 mg/kg/injection, schedule: Q01DX009 (ip), vehicle: suspension in saline) 109 % of control.
For the compound `NCC(=O)NC(Cc1ccccc1)C(=O)NCC(=O)O` (centres undefined) (HELM PEPTIDE1{G.[O=C(C(Cc1ccccc1)N[*:1])[*:2]].G}$$$$V2.0), the T/C is 103 % of control under setting [8], 95 % of control under setting [9] and 100 % of control under setting [10].
On to `Nc1cc2c3c(cccc3c1)C(=O)N(CCN1CCCC1)C2=O`, for which the T/C by setting is: under setting [1], 113 % of control and 106 % of control; under setting [2], 97 % of control and 98 % of control; under setting [3], 115 % of control and 107 % of control; (dose: 50.0 mg/kg/injection, schedule: Q01DX009 (ip), vehicle: saline with Tween-80) 122 % of control.
For the compound `C=C1C(O)C2OC3(CCC(/C=C/C(C)C4CC5(C)SC5C5(OC(CC(C)(O)C(=O)O)CCC5O)O4)O3)CCC2OC1C(O)CC(C)C1OC2(CCCCO2)CCC1C` (centres undefined), the T/C is 104 % of control (dose: 1.25 micrograms/kg/injection, schedule: Q01DX009 (ip), vehicle: saline + alcohol); 111 % of control (dose: 2.5 micrograms/kg/injection, schedule: Q01DX009 (ip), vehicle: saline + alcohol); 120 % of control (dose: 5.0 micrograms/kg/injection, schedule: Q01DX009 (ip), vehicle: saline + alcohol); 97 % of control (dose: 20.0 micrograms/kg/injection, schedule: Q01DX009 (ip), vehicle: saline + alcohol).
Regarding `NNC(=S)N/N=C/c1ccccn1`, the T/C was 91 % of control (dose: 1.56 mg/kg/injection, schedule: Q01DX009 (ip), vehicle: saline); 117 % of control (dose: 1.56 mg/kg/injection, schedule: Q01DX009 (ip), vehicle: suspension in saline); 109 % of control (dose: 3.12 mg/kg/injection, schedule: Q01DX009 (ip), vehicle: saline); 113 % of control under setting [14]; 94 % of control under setting [15]; 102 % of control under setting [16]. The T/C is 105 % of control under setting [17], 113 % of control under setting [11] and 98 % of control under setting [18].
As for `CCOC(=O)c1c[nH]c2oc(/C=N/N3CC(CN4CCOCC4)OC3=O)cc2c1=O` (centres undefined), the T/C under setting [17] was 112 % of control, the T/C under setting [18] was 118 % of control and the T/C under setting [19] was 117 % of control.
On to `Cc1cc2nc3[nH]c4ccccc4c3nc2cc1C`, for which the T/C (dose: 12.5 mg/kg/injection, schedule: Q01DX008 (ip), vehicle: saline) was 91 % of control; the T/C (dose: 25.0 mg/kg/injection, schedule: Q01DX008 (ip), vehicle: saline) is 90 % of control; the T/C (dose: 50.0 mg/kg/injection, schedule: Q01DX008 (ip), vehicle: saline) was 101 % of control; the T/C (dose: 100.0 mg/kg/injection, schedule: Q01DX008 (ip), vehicle: saline) is 91 % of control; the T/C (dose: 200.0 mg/kg/injection, schedule: Q01DX008 (ip), vehicle: saline) was 86 % of control; the T/C (dose: 400.0 mg/kg/injection, schedule: Q01DX008 (ip), vehicle: saline) was 88 % of control.
As for `c1ccc(OCC2CO2)c(OCC2CO2)c1` (centres undefined), the T/C by setting is: under setting [3], 108 % of control; under setting [4], 109 % of control and 114 % of control and 118 % of control; (dose: 100.0 mg/kg/injection, schedule: Q01DX009 (ip), vehicle: saline with Tween-80) 150 % of control and 171 % of control; (dose: 200.0 mg/kg/injection, schedule: Q01DX009 (ip), vehicle: saline with Tween-80) 219 % of control.
For the compound `CSc1nc(=O)[nH]nc1SCc1ccccc1`, the T/C was 105 % of control under setting [5]; 104 % of control under setting [6]; 104 % of control under setting [7]; 107 % of control under setting [8]; 96 % of control under setting [9]; 115 % of control under setting [10].
With `C[C@]12CCC(=O)C=C1CC[C@@H]1[C@@H]2C(=O)C[C@@]2(C)[C@H]1CC[C@]2(O)C(=O)CO`, the T/C under setting [7] is 106 % of control, the T/C under setting [8] was 93 % of control, the T/C under setting [9] is 108 % of control and the T/C under setting [10] is 117 % of control.
For `CC(=O)/C=C\c1ccc(Cl)cc1`, the T/C is 107 % of control under setting [17], 103 % of control under setting [18] and 103 % of control under setting [19].
As for `CCN(CC)c1ccc2cc3ccc(=[N+](CC)CC)cc-3oc2c1`, the T/C (dose: 2.5 mg/kg/injection, schedule: Q01DX009 (ip), vehicle: Klucel (hydroxypropylcellulose) (HPC)) is 104 % of control; the T/C (dose: 5.0 mg/kg/injection, schedule: Q01DX009 (ip), vehicle: Klucel (hydroxypropylcellulose) (HPC)) was 96 % of control; the T/C (dose: 10.0 mg/kg/injection, schedule: Q01DX009 (ip), vehicle: Klucel (hydroxypropylcellulose) (HPC)) is 88 % of control.
Turning to `O=[N+]([O-])c1c(O)c(CNCCCO)cc(CNCCCO)c1O`, the T/C runs as follows: under setting [15], 102 % of control; under setting [17], 102 % of control.
For the compound `CC(=O)NC(C=O)OCC=O` (centres undefined), the T/C is 112 % of control (dose: 6.25 mg/kg/injection, schedule: Q01DX009 (ip), vehicle: water); 111 % of control and 106 % of control (dose: 12.5 mg/kg/injection, schedule: Q01DX009 (ip), vehicle: water); 109 % of control and 105 % of control (dose: 25.0 mg/kg/injection, schedule: Q01DX009 (ip), vehicle: water); 103 % of control and 106 % of control (dose: 50.0 mg/kg/injection, schedule: Q01DX009 (ip), vehicle: water); 111 % of control and 117 % of control (dose: 100.0 mg/kg/injection, schedule: Q01DX009 (ip), vehicle: water); 112 % of control (dose: 200.0 mg/kg/injection, schedule: Q01DX009 (ip), vehicle: water).
With `O=C1N[C@H]2[C@H](CS[C@H]2CCCCC(=O)N(CCP(c2ccccc2)c2ccccc2)CCP(c2ccccc2)c2ccccc2)N1`, the T/C under setting [6] was 110 % of control and 97 % of control; the T/C under setting [7] was 109 % of control and 101 % of control; the T/C under setting [8] was 105 % of control; the T/C under setting [9] was 113 % of control; the T/C under setting [10] is 101 % of control.
In the case of `CCN(CC)CCC(=O)c1ccccc1`, the T/C was 97 % of control under setting [14]; 98 % of control under setting [16]; 104 % of control under setting [11]; 107 % of control under setting [12]; 124 % of control under setting [13].
